This is an account of results in patent publication US8003631B2, “Composition and method for the treatment of tauopathies” (Tautatis, Inc., priority 2004, dated 2011).

In series [1] the test system is PHF-type tau hyperphosphorylation. Kind of series: Titration of tau hyperphosphorylation inhibitors in okadaic acid-stimulated rat hippocampal brain slice model. Type of series: cell-based. The conditions noted are these: okadaic acid provocation of PHF-markers. The source says:
Authentic PHF-type phosphorylation events virtually indistinguishable by all known molecular markers from what is seen in PHF-tau from human Alzheimer's disease brains is rapidly provoked in such brain slices by application of the phosphatase inhibitor okadaic acid (OA) [Gong et al., Brain Res. Brain Res. Protoc., 6, 134-140 (2001); WO 01/57535; WO 00/01699].
In okadaic acid-treated brain slices, most of the above pathological markers are modeled. For the detection of active inhibitor compounds, freshly prepared metabolically-active isolated slices, kept under constant oxygenation in a physiological buffer (artificial cerebrospinal fluid or Krebs-Ringer solution), are preincubated with a range of concentration of the compounds of general formula 1. The slices are then extracted with buffers stopping both kinase as well as phosphatase activities, and soluble supernatants of such tissue homogenates are then separated by SDS-PAGE and subjected to Western-blotting. […] The intensity of the signals can then be normalized to the amount of total tau in the sample by probing a sister blot with a phosphorylation insensitive tau antibody, followed by forming the intensity ratio of the respective phosphoepitope over total tau immunoreactivity which represent an accurate quantitative measure of the degree of phosphorylation defining a particular epitope. […]

For series [2] the following is noted: cited from earlier work.

On to `CCSCc1ccc2c(c1)c1c3c(c4c5cc(CSCC)ccc5n5c4c1n2[C@H]1C[C@](O)(C(=O)OC)[C@]5(C)O1)CNC3=O` [CEP-1347], for which the “activity in the brain slice hyperphosphorylation model” value in series [1] was “inactive”.
With `COC(=O)[C@@]1(O)C[C@H]2O[C@]1(C)n1c3ccccc3c3c4c(c5c6ccccc6n2c5c31)C(=O)NC4` [K252a], the brain/plasma ratio entry in series [2] (concentration in brain over concentration in plasma at a given time point) is “below 1”. Further, in series [2] (rats, oral), the maximal oral bioavailability was 13%.
In the case of `CN[C@@H]1C[C@H]2O[C@@](C)([C@@H]1OC)n1c3ccccc3c3c4c(c5c6ccccc6n2c5c31)C(=O)NC4` [staurosporine], in series [1], the “activity in the brain slice hyperphosphorylation model” value is “inactive”.
